From patent US20230053688A1, “METHODS TO ALTER LATENCY IN EBV+ MALIGNANCIES” (Cornell University, priority 2020, published 2023)
Where a name gives a salt, the structure may show the parent alone. Read-outs that look alike come from different tables or passages of the source.

Test system: LMP1 expression in Kem I cells
Test: microbe, parasite or virus in culture
Assay type: cell-based, EBV
Conditions: for fold induction at 2.5 µM / fold induction at 1 µM: human gammaherpesvirus 4, 48 h
[1] = read-out: Average LMP1 Fold Increase, Kem I cells, 2.5 uM, 48 hours, average of replicates 1 and 2
[2] = read-out: Replicate 1-LMP1 Fold Increase, Kem I cells, 2.5 uM, 48 hours, fold change in LMP1 transcript vs vehicle
[3] = read-out: Replicate 2-LMP1 Fold Increase, Kem I cells, 2.5 uM, 48 hours, fold change in LMP1 transcript vs vehicle
[4] = Kem I cells, dose 2.5 uM, 48 hours, LMP1 transcript by in-well qRT-PCR, average of the two replicates
[5] = Kem I cells, dose 2.5 uM, 48 hours, LMP1 transcript by in-well qRT-PCR, screen replicate 1
[6] = Kem I cells, dose 2.5 uM, 48 hours, LMP1 transcript by in-well qRT-PCR, screen replicate 2
[7] = Kem I cells, 2.5 uM, 48 hours, average of replicates 1 and 2
[8] = Kem I cells, 2.5 uM, 48 hours, fold change in LMP1 transcript vs vehicle
[9] = read-out: Average LMP1 Fold Increase, Kem I cells, dose 2.5 uM, 48 hours, LMP1 transcript by in-well qRT-PCR, average of the two replicates
[10] = read-out: Replicate 1-LMP1 Fold Increase, Kem I cells, dose 2.5 uM, 48 hours, LMP1 transcript by in-well qRT-PCR, screen replicate 1
[11] = read-out: Replicate 2-LMP1 Fold Increase, Kem I cells, dose 2.5 uM, 48 hours, LMP1 transcript by in-well qRT-PCR, screen replicate 2
[12] = read-out: Average LMP1 Fold Increase, Kem I cells, 1 uM, 48 hours, average of replicates 1 and 2
[13] = read-out: Replicate 1-LMP1 Fold Increase, Kem I cells, 1 uM, 48 hours, fold change in LMP1 transcript vs vehicle
[14] = read-out: Replicate 2-LMP1 Fold Increase, Kem I cells, 1 uM, 48 hours, fold change in LMP1 transcript vs vehicle

Row | Compound | Average LMP1 Fold Increase [7] | Replicate 1-LMP1 Fold Increase [8] | Replicate 2-LMP1 Fold Increase [8] | other results
1 | CCOC(=O)[C@H](CCc1ccccc1)N[C@@H](C)C(=O)N1C(=O)N(C)C[C@H]1C(=O)O [Imidapril HCl] | – | – | – | fold induction at 2.5 µM [1]: 0.66; fold induction at 2.5 µM [2]: 0.88; fold induction at 2.5 µM [3]: 0.44
2 | COc1cc2c(Nc3ccc(NC(=O)c4ccccc4)cc3)ncnc2cc1OCCCN1CCOCC1 [ZM 447439] | – | – | – | Average LMP1 Fold Increase [4]: 0.37 fold; Replicate 1-LMP1 Fold Increase [5]: 0.34 fold; Replicate 2-LMP1 Fold Increase [6]: 0.40 fold
3 | OCCn1cc(-c2cnc3nnn(Cc4ccc5ncccc5c4)c3n2)cn1 [PF-04217903] | 1.03 | 0.96 | 1.11 | –
4 | CC(C)(C)c1cc(/C=C(\C#N)C(N)=S)cc(C(C)(C)C)c1O [Tyrphostin AG 879] | – | – | – | Average LMP1 Fold Increase [4]: 0.74 fold; Replicate 1-LMP1 Fold Increase [5]: 0.53 fold; Replicate 2-LMP1 Fold Increase [6]: 0.95 fold
5 | CCn1c(-c2nonc2N)nc2c(C#CC(C)(C)O)ncc(OC[C@H]3CCCNC3)c21 [GSK690693] | 0.63 | 0.85 | 0.41 | –
6 | CN(C)CCc1c[nH]c2ccc(Cn3cncn3)cc12 [Rizatriptan Benzoate] | – | – | – | fold induction at 2.5 µM [1]: 0.15; fold induction at 2.5 µM [2]: 0.1; fold induction at 2.5 µM [3]: 0.2
7 | CCOC(=O)c1ccc(NC2CCCCC2)c(N)c1 [Ferrostatin-1 (Fer-1)] | 0.22 | 0.24 | 0.19 | –
8 | COc1cc(-c2ncn(/C=C\C(=O)OC(C)C)n2)cc(C(F)(F)F)c1 [KPT-185] | 0.68 | 0.56 | 0.80 | –
9 | COc1cc(F)c(C(C)C)cc1-c1ccc(C(F)(F)F)cc1CN1C(=O)O[C@H](c2cc(C(F)(F)F)cc(C(F)(F)F)c2)[C@@H]1C [Anacetrapib (MK-0859)] | 0.63 | 0.80 | 0.46 | –
10 | Oc1cc(O)cc(/C=C/c2ccc(O)c(O)c2)c1 [Piceatannol] | – | – | – | fold induction at 2.5 µM [1]: 0.75; fold induction at 2.5 µM [2]: 0.83; fold induction at 2.5 µM [3]: 0.66
11 | CS(=O)(=O)c1ccc(-c2cnc(N)c(C(=O)Nc3ccccc3)n2)cc1 [VE-821] | – | – | – | fold induction at 2.5 µM [9]: 0.17; fold induction at 2.5 µM [10]: 0.2; fold induction at 2.5 µM [11]: 0.14
12 | CC(=O)c1c(C)c2cnc(Nc3ccc(N4CCNCC4)cn3)nc2n(C2CCCC2)c1=O.Cl [Palbociclib (PD-0332991) HCl] | 1.34 | 0.77 | 1.91 | –
13 | C=CC(=O)N1CCC[C@@H](n2nc(-c3ccc(Oc4ccccc4)cc3)c3c(N)ncnc32)C1 [Ibrutinib (PCl-32765)] | – | – | – | Average LMP1 Fold Increase: 0.15; Replicate 1-LMP1 Fold Increase: 0.09; Replicate 2-LMP1 Fold Increase: 0.22
14 | Cc1cc(Nc2ncc(Cl)c(Nc3ccccc3S(=O)(=O)C(C)C)n2)c(OC(C)C)cc1C1CCNCC1 [LDK378] | – | – | – | fold induction at 2.5 µM [1]: 0.67; fold induction at 2.5 µM [2]: 0.85; fold induction at 2.5 µM [3]: 0.49
15 | C=CCNC1=C2C[C@@H](C)C[C@H](OC)[C@H](O)[C@@H](C)/C=C(\C)[C@H](OC(N)=O)[C@@H](OC)/C=C\C=C(/C)C(=O)NC(=CC1=O)C2=O [17-AAG (Tanespimycin)] | 0.45 | 0.36 | 0.55 | –
16 | CCN1CCN(c2ccc(Nc3cc(N(C)C(=O)Nc4c(Cl)c(OC)cc(OC)c4Cl)ncn3)cc2)CC1 [BGJ398 (NVP-BGJ398)] | 0.85 | 1.02 | 0.69 | –
17 | COc1c(O)cc2c(c1O)[C@@H]1O[C@H](CO)[C@@H](O)[C@H](O)[C@H]1OC2=O [Bergenin] | – | – | – | fold induction at 2.5 µM [1]: 0.86; fold induction at 2.5 µM [2]: 0.65; fold induction at 2.5 µM [3]: 1.07

Row | Compound | Average LMP1 Fold Increase [7] | Replicate 1-LMP1 Fold Increase [8] | Replicate 2-LMP1 Fold Increase [8] | other results
18 | Nc1nc(Cl)nc2c1ncn2[C@H]1C[C@H](O)[C@@H](CO)O1 [Cladribine] | – | – | – | fold induction at 1 µM [12]: 38.7; fold induction at 1 µM [13]: 71.4; fold induction at 1 µM [14]: 6.02
19 | C[C@H](NC(=O)[C@@H](O)c1cc(F)cc(F)c1)C(=O)N[C@@H]1C(=O)N(C)c2ccccc2-c2ccccc21 [LY411575] | 0.36 | 0.41 | 0.31 | –
20 | Cn1cc(C2=C(c3cn(C4CCN(Cc5ccccn5)CC4)c4ccccc34)C(=O)NC2=O)c2ccccc21 [Enzastaurin (LY317615)] | 25.14 | 0.48 | 49.80 | –
21 | CN1CC(=O)N2[C@H](c3ccc4c(c3)OCO4)c3[nH]c4ccccc4c3C[C@@H]2C1=O [Tadalafil] | – | – | – | fold induction at 2.5 µM [9]: 3.06; fold induction at 2.5 µM [10]: 3.8; fold induction at 2.5 µM [11]: 2.32
22 | O=C(NOC[C@H](O)CO)c1ccc(F)c(F)c1Nc1ccc(I)cc1F [PD0325901] | – | – | – | fold induction at 2.5 µM [1]: 0.47; fold induction at 2.5 µM [2]: 0.68; fold induction at 2.5 µM [3]: 0.27
23 | Cc1ccc(C(=O)N(CCCN)[C@@H](c2oc3cc(Cl)ccc3c(=O)c2Cc2ccccc2)C(C)C)cc1 [SB743921] | 1.76 | 1.10 | 2.41 | –
24 | CC(C)[C@H](O)C(=O)N[C@@H](C)C(=O)N[C@@H]1C(=O)N(C)CCc2ccccc21 [Semagacestat (LY450139)] | 0.45 | 0.31 | 0.59 | –
25 | CC(C)NCCCn1c(Sc2cc3c(cc2I)OCO3)nc2c(N)ncnc21 [PU-H71] | – | – | – | fold induction at 1 µM [12]: 9.03; fold induction at 1 µM [13]: 15.3; fold induction at 1 µM [14]: 2.79
26 | COC1CCN(C(=O)c2cc(Cc3n[nH]c(=O)c4ccccc34)ccc2F)CC1 [AZD2461] | 1.00 | 0.50 | 1.51 | –
27 | Cc1nnc(C(=O)NC(C)(C)c2nc(C(=O)NCc3ccc(F)cc3)c(O)c(=O)n2C)o1 [Raltegravir (MK-0518)] | 1.31 | 0.59 | 2.02 | –
28 | Nc1ccc(C(=O)O)c(O)c1 [Sodium 4-Aminosalicylate] | – | – | – | fold induction at 2.5 µM [1]: 0.36; fold induction at 2.5 µM [2]: 0.19; fold induction at 2.5 µM [3]: 0.53
29 | Cc1c(C(=O)NN2CCCCC2)nn(-c2ccc(Cl)cc2Cl)c1-c1ccc(Cl)cc1 [Rimonabant] | – | – | – | fold induction at 2.5 µM [1]: 0.39; fold induction at 2.5 µM [2]: 0.24; fold induction at 2.5 µM [3]: 0.54
30 | CC(C)c1onc(-c2c(Cl)cccc2Cl)c1COc1ccc(/C=C/c2cccc(C(=O)O)c2)c(Cl)c1 [GW4064] | 0.72 | 0.94 | 0.50 | –
31 | C[C@H](NC(=O)Cc1cc(F)cc(F)c1)C(=O)N[C@@H]1C(=O)N(C)c2ccccc2-c2ccccc21 [YO-01027] | – | – | – | Average LMP1 Fold Increase [4]: 0.35 fold; Replicate 1-LMP1 Fold Increase [5]: 0.44 fold; Replicate 2-LMP1 Fold Increase [6]: 0.27 fold
32 | CN(C)Cc1ccc(-c2nc3cccc4c3n2CCNC4=O)cc1 [AG-14361] | 0.30 | 0.39 | 0.22 | –
33 | CCCCN1CCCCC1C(=O)Nc1c(C)cccc1C (stereo not drawn) [Bupivacaine HCl] | – | – | – | fold induction at 2.5 µM [1]: 0.59; fold induction at 2.5 µM [2]: 0.64; fold induction at 2.5 µM [3]: 0.53
34 | CN1CCc2cc3c(cc2[C@H]1[C@@H]1OC(=O)c2c1ccc1c2OCO1)OCO3 [(+)-Bicuculline] | 0.89 | 0.86 | 0.93 | –
